Data set [1] can be described thus: Cytotoxicity against rat NRK-49F cells assessed as cell viability at 10 uM incubated for 72 hrs by MTT assay. It is filed as cell-based. The settings on record: read-out: Activity. Background: Tetrazolium dyes change colour on reduction, which living cells bring about.
Data set [2] has as its system NRK-49F. Put plainly: Inhibition of TGF-beta-induced collagen accumulation in rat NRK-49F cells at 10 uM incubated for 2 days by PSR staining based microscopic analysis relative to control. In kind it is functional. The settings on record: 48 h.
The subject of a further data set is NIH3T3. Put plainly: Inhibition of TGF-beta-induced […] migration in mouse NIH/3T3 cells at 1 uM incubated for 24 hrs by Transwell assay. In kind it is functional, cell-based.
For data set [3], the system named is NRK-49F. Put plainly: Inhibition of TGF-beta-induced collagen accumulation in rat NRK-49F cells incubated for 2 days by PSR staining based microscopic analysis. The settings on record: for IC50: 48 h. It is filed as functional, cell-based.
Data set [4] has as its system Mus musculus. Put plainly: Antifibrotic activity against BLM-induced C57BL/6 mouse pulmonary fibrosis model assessed as reduction in total white blood cells in BALF at 50 mg/kg, po administered for 28 days and measured on day 28. It is filed as functional, organism-based.
In data set [5] the test system is Mus musculus. Put plainly: Antifibrotic activity against BLM-induced C57BL/6 mouse pulmonary fibrosis model assessed as reduction in lymphocytes in BALF at 50 mg/kg, po administered for 28 days and measured on day 28. In kind it is functional, organism-based.
Data set [6] deals with Mus musculus. Put plainly: Antifibrotic activity against BLM-induced C57BL/6 mouse pulmonary fibrosis model assessed as reduction in neutrophils in BALF at 50 mg/kg, po administered for 28 days and measured on day 28. It is filed as functional, organism-based.
In data set [7] the test system is Mus musculus. Put plainly: Antifibrotic activity against C57BL/6 mouse pulmonary fibrosis model assessed as reduction in bleomycin-iduced hydroxyproline level at 50 mg/kg, po administered for 28 days and measured on day 14 and 28 by spectrophotometry. In kind it is functional, organism-based.
In data set [8] the test system is Mus musculus. The experiment in a line: Antifibrotic activity against BLM-induced C57BL/6 mouse pulmonary fibrosis model assessed as decrease in bronchiolar epithelial cell shedding at 50 mg/kg, po administered for 28 days and measured on day 14 and 28 by HE staining based fluorescence microscopy. In kind it is functional, organism-based.
Data set [9] concerns Mus musculus. Put plainly: Antifibrotic activity against BLM-induced C57BL/6 mouse pulmonary fibrosis model assessed as decrease in bronchioles inflammatory cell infiltration at 50 mg/kg, po administered for 28 days and measured on day 14 and 28 by HE staining based fluorescence microscopy. In kind it is functional, organism-based.
The nature of data set [10]: Oral bioavailability in Sprague-Dawley rat 10 mg/kg measured upto 24 hrs. In kind it is ADME, organism-based. The settings on record: in vivo.
The subject of data set [11] is Mus musculus. Put plainly: Antifibrotic activity against BLM-induced C57BL/6 mouse pulmonary fibrosis model assessed as increase in time for reduction of alveoli at 50 mg/kg, po administered for 28 days and measured on day 14 and 28 by HE staining based fluorescence microscopy. It is filed as functional, organism-based.
Data set [12] relates to Mus musculus. Put plainly: Antifibrotic activity against BLM-induced C57BL/6 mouse pulmonary fibrosis model assessed as decrease in destruction alveolar structure at 50 mg/kg, po administered for 28 days and measured on day 14 and 28 by HE staining based fluorescence microscopy. It is filed as functional, organism-based.
Data set [13] deals with Mus musculus. Put plainly: Antifibrotic activity against BLM-induced C57BL/6 mouse pulmonary fibrosis model assessed as decrease in bronchial epithelial vacuolar degeneration at 50 mg/kg, po administered for 28 days and measured on day 14 and 28 by HE staining based fluorescence microscopy. It is filed as functional, organism-based.
Data set [14] relates to Mus musculus. The experiment in a line: Antifibrotic activity against BLM-induced C57BL/6 mouse pulmonary fibrosis model assessed as decrease in perivascular inflammatory cell infiltration at 50 mg/kg, po administered for 28 days and measured on day 14 and 28 by HE staining based fluorescence microscopy. In kind it is functional, organism-based.

Structures are written as SMILES. The source made the active and inactive calls. No cut-off for these calls is given here.

One may read the inhibition as the percentage by which the read-out fell short of the control. In the case of `O=C(CN1CCCC1)Nc1ccc(Nc2cc(=O)oc3ccccc23)cc1F`, the viability at 72 h, 10 µM in [1] came out at 74.3%. In the data set with NRK-49F [2], this compound yielded an inhibition at 10 µM of 33.3%.

`C[C@H]1CCCN(CC(=O)Nc2ccc(Nc3cc(=O)oc4ccccc34)cc2F)C1`: the viability at 72 h, 10 µM in data set [1] amounted to 88.5%. Besides, the inhibition at 10 µM in the data set on NRK-49F [2] was found to be 21.9%.

For the compound `O=C(CN1CCCCC1)Nc1ccc(Nc2cc(=O)oc3ccccc23)cc1`, the viability at 72 h, 10 µM in data set [1] was determined as 43.6%. In the data set on NRK-49F [2], this compound displayed an inhibition at 10 µM of 75.2%.

In the case of `COc1ccc2c(Nc3ccc(NC(=O)CN4CCOCC4)cc3)cc(=O)oc2c1`, the viability at 72 h, 10 µM in data set [1] came out at 89.1%. The same compound showed an inhibition at 10 µM in the data set on NRK-49F [2] of 72.9%.

Take `COc1ccc2c(Oc3ccc(NC(=O)CN4CCCC4)cc3)cc(=O)oc2c1`: in data set [1], the viability at 72 h, 10 µM turned out to be 93.3%. The compound also registered an inhibition at 10 µM in the data set on NRK-49F [2] of 8.07%.

As to `O=C(CN1CCCC1)Nc1ccc(Nc2cc(=O)oc3ccc([N+](=O)[O-])cc23)cc1`, the viability at 72 h, 10 µM in data set [1] amounted to 45.3%. In the data set on NRK-49F [2], at 10 µM the inhibition was 17.9%.

Usually IC50 stands for the point on the concentration scale where inhibition reaches its midpoint. For `COc1ccc2c(Nc3ccc(NC(=O)CN4CCN(C)CC4)cc3)cc(=O)oc2c1`, the viability at 72 h, 10 µM in [1] was 87.2%. Besides, the inhibition result in the data set on NIH3T3 is “Active”. Moreover, in the data set on NRK-49F [3], the inhibition result was “Dose-dependent effect” and the IC50 came to 4.35 µM. Also, the inhibition at 10 µM in the data set on NRK-49F [2] stood at 80.2%.

As for `COc1ccc2c(Nc3ccc(NC(=O)CN4CCC[C@H](C)C4)cc3)cc(=O)oc2c1`, the viability at 72 h, 10 µM in data set [1] turned out to be 90.1%. The same compound returned an inhibition at 10 µM in the data set on NRK-49F [2] of 72.7%.

Regarding `COc1ccc2c(Oc3ccc(NC(=O)CN4CCC[C@H](C)C4)cc3)cc(=O)oc2c1`, the viability at 72 h, 10 µM in data set [1] turned out to be 90.5%. In the data set on NRK-49F [2], this compound yielded an inhibition at 10 µM of 32.6%.

For orientation: bioavailability means dose-corrected exposure relative to a reference, in per cent. Low values mean poor availability, high ones good availability. Turning to `COC(=O)c1ccc2c(c1)NC(=O)/C2=C(\Nc1ccc(N(C)C(=O)CN2CCN(C)CC2)cc1)c1ccccc1` [NINTEDANIB], in [1], the viability at 72 h, 10 µM is 40%. For the same compound, the result in the data set with Mus musculus [4], with Mus musculus [5], in the data set on Mus musculus [6], in the data set with Mus musculus [8], with Mus musculus [9] and in the data set with Mus musculus [11] was Active. Moreover, the outcome with Mus musculus [12], with Mus musculus [13] and in the data set on Mus musculus [14] was Active. In addition, the result with Mus musculus [7] was inactive. The compound further returned an IC50 with NRK-49F [3] of 1.1 µM. In addition, in the data set with NRK-49F [2], at 10 µM the inhibition was 95.5%. Further, the bioavailability in data set [10] came out at 12%.

On to `CN1CCN(CC(=O)Nc2ccc(Nc3cc(=O)oc4ccccc34)cc2F)CC1`, for which the viability at 72 h, 10 µM in [1] turned out to be 78.1%. This compound displayed an inhibition at 10 µM in the data set on NRK-49F [2] of 36.8%.

As to `O=C(CN1CCCCC1)Nc1ccc(Nc2cc(=O)oc3ccccc23)cc1F`, the viability at 72 h, 10 µM in data set [1] stood at 67.7%. The same compound yielded an inhibition at 10 µM in the data set on NRK-49F [2] of 11.3%.

On to `CN1CCN(CC(=O)Nc2ccc(Oc3cc(=O)oc4ccccc34)cc2)CC1`, for which, in [1], the viability at 72 h, 10 µM was found to be 83.6%. For the same compound, in the data set on NRK-49F [2], 10 µM produced 24% inhibition.

As to `O=C(CN1CCOCC1)Nc1ccc(Nc2cc(=O)oc3ccccc23)cc1`, in data set [1], the viability at 72 h, 10 µM worked out at 75.2%. In the data set with NRK-49F [2], this compound displayed an inhibition at 10 µM of 41.8%.

As to `O=C(CN1CCOCC1)Nc1ccc(Oc2cc(=O)oc3ccccc23)cc1`, in data set [1], the viability at 72 h, 10 µM is 97%. The inhibition at 10 µM with NRK-49F [2] came out at 34.6%.

In the case of `O=C(CN1CCCCC1)Nc1ccc(Nc2cc(=O)oc3ccc([N+](=O)[O-])cc23)cc1`, the viability at 72 h, 10 µM in [1] turned out to be 20.3%. This compound also displayed an inhibition at 10 µM with NRK-49F [2] of 15.4%.

For the compound `CN1CCN(CC(=O)Nc2ccc(Nc3cc(=O)oc4ccccc34)cc2)CC1`, the viability at 72 h, 10 µM in data set [1] amounted to 87.5%. This compound came in with an inhibition at 10 µM with NRK-49F [2] of 26.8%.

Regarding `O=C(CN1CCOCC1)Nc1ccc(Nc2cc(=O)oc3ccc([N+](=O)[O-])cc23)cc1`, the viability at 72 h, 10 µM in data set [1] amounted to 23.1%. Besides, in the data set on NRK-49F [2], the inhibition at 10 µM is 31.7%.

`C[C@H]1CCCN(CC(=O)Nc2ccc(Nc3cc(=O)oc4ccccc34)cc2)C1`: in data set [1], the viability at 72 h, 10 µM was 91.5%. In addition, in the data set with NIH3T3, the inhibition result is “Active”. Further, in the data set with NRK-49F [3], the inhibition result is “Dose-dependent effect” and the 50% inhibitory concentration (IC50) was determined as 3.96 µM. Besides, at 10 µM the inhibition in the data set with NRK-49F [2] was 80.2%.

As to `CN1CCN(CC(=O)Nc2ccc(Nc3cc(=O)oc4ccc([N+](=O)[O-])cc34)cc2)CC1`, the viability at 72 h, 10 µM in [1] came to 32.1%. The inhibition at 10 µM with NRK-49F [2] amounted to 22.3%.

Take `COc1ccc2c(Nc3ccc(NC(=O)CN4CCCC4)cc3)cc(=O)oc2c1`: the viability at 72 h, 10 µM in data set [1] came to 52%. For the same compound, the inhibition at 10 µM in the data set with NRK-49F [2] amounted to 15.7%.

Consider `COc1ccc2c(Nc3ccc(NC(=O)CN4CCCCC4)cc3)cc(=O)oc2c1`, for which, in data set [1], the viability at 72 h, 10 µM amounted to 41.3%. Also, at 10 µM the inhibition in the data set on NRK-49F [2] was 74.5%.

For the compound `C[C@H]1CCCN(CC(=O)Nc2ccc(Nc3cc(=O)oc4ccc([N+](=O)[O-])cc34)cc2)C1`, the viability at 72 h, 10 µM in data set [1] was 17.8%. The compound further registered an inhibition at 10 µM with NRK-49F [2] of 28.7%.

Regarding `COc1ccc2c(Oc3ccc(NC(=O)CN4CCOCC4)cc3)cc(=O)oc2c1`, the viability at 72 h, 10 µM in [1] was 96.5%. Further, the inhibition entry in the data set with NIH3T3 was “Active”. Also, in the data set with NRK-49F [3], the inhibition entry was “Dose-dependent effect” and inhibition was half-maximal at 3.71 µM (IC50). The compound further registered an inhibition at 10 µM in the data set on NRK-49F [2] of 78.3%.

As for `COc1ccc2c(Oc3ccc(NC(=O)CN4CCCCC4)cc3)cc(=O)oc2c1`, the viability at 72 h, 10 µM in data set [1] was 90.4%. The inhibition at 10 µM in the data set on NRK-49F [2] amounted to 73.5%.

Consider `O=C(CN1CCCC1)Nc1ccc(Oc2cc(=O)oc3ccccc23)cc1`, for which, in [1], the viability at 72 h, 10 µM turned out to be 82.9%. Besides, the inhibition at 10 µM with NRK-49F [2] was 18.8%.

Consider `C[C@H]1CCCN(CC(=O)Nc2ccc(Oc3cc(=O)oc4ccccc34)cc2)C1`, for which the viability at 72 h, 10 µM in data set [1] was 98%. The inhibition at 10 µM in the data set with NRK-49F [2] was determined as 75.3%.

In the case of `O=C(CN1CCOCC1)Nc1ccc(Nc2cc(=O)oc3ccccc23)cc1F`, the viability at 72 h, 10 µM in [1] came out at 72.3%. Besides, in the data set on NRK-49F [2], the inhibition at 10 µM came to 34.5%.

Turning to `COc1ccc2c(Oc3ccc(NC(=O)CN4CCN(C)CC4)cc3)cc(=O)oc2c1`, the viability at 72 h, 10 µM in [1] came out at 95.6%. This compound also came in with an inhibition at 10 µM in the data set on NRK-49F [2] of 65.4%.

As to `O=C(CN1CCCC1)Nc1ccc(Nc2cc(=O)oc3ccccc23)cc1`, the viability at 72 h, 10 µM in data set [1] worked out at 62%. This compound also yielded an inhibition at 10 µM with NRK-49F [2] of 12.4%.

The values above are taken from ChEMBL document CHEMBL4312017, “Synthesis and discovery of new compounds bearing coumarin scaffold for the treatment of pulmonary fibrosis” (Eur J Med Chem, 2020).
